{
  "source": "patent US20260285850A1",
  "about": "“SUBSTITUTED OXAZOLIDINONES AND IMIDAZOLINONES AS HERBICIDES” (FMC CORPORATION, priority 2023, published 2026)",
  "format_in_all_cases": "in vivo",
  "key": {"[1]": {"tested_on": "barnyardgrass (Echinochloa crusgalli)", "test": "Test B flooded paddy test, visual plant response rating 0-100", "details": "250 g ai/ha, Flood, applied to paddy water, evaluated after 13 days", "how_it_was_run": "(§1)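 Visual evaluation after 13 days. Water-applied treatment, 3 cm flood depth held constant, plants at 2-leaf stage at treatment.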"}, "[2]": {"tested_on": "ducksalad (Heteranthera limosa)", "test": "Test B flooded paddy test, visual plant response rating 0-100", "details": "250 g ai/ha, Flood, applied to paddy water, evaluated after 13 days", "how_it_was_run": "as §1"}, "[3]": {"tested_on": "rice (Oryza sativa)", "test": "Test B flooded paddy test, visual plant response rating 0-100", "details": "250 g ai/ha, Flood, applied to paddy water, evaluated after 13 days", "how_it_was_run": "as §1"}, "[4]": {"tested_on": "sedge, umbrella (small-flower umbrella sedge, Cyperus difformis)", "test": "Test B flooded paddy test, visual plant response rating 0-100", "details": "250 g ai/ha, Flood, applied to paddy water, evaluated after 13 days", "how_it_was_run": "as §1"}, "[5]": {"tested_on": "kochia (Bassia scoparia)", "test": "Test A preemergence soil spray, visual injury rating 0-100", "details": "10 days", "how_it_was_run": "(§2)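 Rating: visual, day 10, untreated plants as reference, 0 no effect to 100 full control. Plants were in loam-sand and were treated either preemergence via directed soil spray or postemergence at the one- to two-leaf stage.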"}, "[6]": {"tested_on": "corn (Zea mays)", "test": "Test A preemergence soil spray, visual injury rating 0-100", "details": "10 days", "how_it_was_run": "as §2"}, "[7]": {"tested_on": "barnyardgrass (Echinochloa crus-galli)", "test": "Test A preemergence soil spray, visual injury rating 0-100", "details": "10 days", "how_it_was_run": "as §2"}, "[8]": {"tested_on": "ragweed (common ragweed, Ambrosia artemisiifolia)", "test": "Test A preemergence soil spray, visual injury rating 0-100", "details": "10 days", "how_it_was_run": "as §2"}, "[9]": {"tested_on": "soybean (Glycine max)", "test": "Test A preemergence soil spray, visual injury rating 0-100", "details": "10 days", "how_it_was_run": "as §2"}, "[10]": {"tested_on": "green foxtail (Setaria viridis)", "test": "Test A preemergence soil spray, visual injury rating 0-100", "details": "10 days", "how_it_was_run": "as §2"}, "[11]": {"tested_on": "oat, wild (wild oat, Avena fatua)", "test": "Test A preemergence soil spray, visual injury rating 0-100", "details": "10 days", "how_it_was_run": "as §2"}, "[12]": {"tested_on": "wheat (Triticum aestivum)", "test": "Test A preemergence soil spray, visual injury rating 0-100", "details": "10 days", "how_it_was_run": "as §2"}, "[13]": {"tested_on": "blackgrass (Alopecurus myosuroides)", "test": "Test A preemergence soil spray, visual injury rating 0-100", "details": "10 days", "how_it_was_run": "as §2"}, "[14]": {"tested_on": "ryegrass, Italian (italian ryegrass, Lolium multiflorum)", "test": "Test A preemergence soil spray, visual injury rating 0-100", "details": "10 days", "how_it_was_run": "as §2"}, "[15]": {"tested_on": "palmer (palmer amaranth, palmer pigweed, Amaranthus palmeri)", "test": "Test A preemergence soil spray, visual injury rating 0-100", "details": "10 days", "how_it_was_run": "as §2"}, "[16]": {"tested_on": "kochia (Bassia scoparia)", "test": "Test A postemergence application, visual injury rating 0-100", "how_it_was_run": "as §2"}, "[17]": {"tested_on": "corn (Zea mays)", "test": "Test A postemergence application, visual injury rating 0-100", "how_it_was_run": "as §2"}, "[18]": {"tested_on": "barnyardgrass (Echinochloa crus-galli)", "test": "Test A postemergence application, visual injury rating 0-100", "how_it_was_run": "as §2"}, "[19]": {"tested_on": "ragweed (common ragweed, Ambrosia artemisiifolia)", "test": "Test A postemergence application, visual injury rating 0-100", "how_it_was_run": "as §2"}, "[20]": {"tested_on": "soybean (Glycine max)", "test": "Test A postemergence application, visual injury rating 0-100", "how_it_was_run": "as §2"}, "[21]": {"tested_on": "green foxtail (Setaria viridis)", "test": "Test A postemergence application, visual injury rating 0-100", "how_it_was_run": "as §2"}, "[22]": {"tested_on": "horseweed (Erigeron canadensis)", "test": "Test A postemergence application, visual injury rating 0-100", "how_it_was_run": "as §2"}, "[23]": {"tested_on": "galium (catchweed bedstraw, Galium aparine)", "test": "Test A postemergence application, visual injury rating 0-100", "how_it_was_run": "as §2"}, "[24]": {"tested_on": "oat, wild (wild oat, Avena fatua)", "test": "Test A postemergence application, visual injury rating 0-100", "how_it_was_run": "as §2"}, "[25]": {"tested_on": "wheat (Triticum aestivum)", "test": "Test A postemergence application, visual injury rating 0-100", "how_it_was_run": "as §2"}, "[26]": {"tested_on": "blackgrass (Alopecurus myosuroides)", "test": "Test A postemergence application, visual injury rating 0-100", "how_it_was_run": "as §2"}, "[27]": {"tested_on": "ryegrass, Italian (italian ryegrass, Lolium multiflorum)", "test": "Test A postemergence application, visual injury rating 0-100", "how_it_was_run": "as §2"}, "[28]": {"tested_on": "palmer (palmer amaranth, palmer pigweed, Amaranthus palmeri)", "test": "Test A postemergence application, visual injury rating 0-100", "how_it_was_run": "as §2"}, "[29]": {"details": "62 g ai/ha, 0 = no effect, 100 = complete control"}, "[30]": {"details": "62 g ai/ha, postemergence, 10 days, 0 = no effect, 100 = complete control"}, "[31]": {"details": "Postemergence, 16 g ai/ha, greenhouse 10 days, 0 no effect, 100 complete control"}},
  "data": [
    {"smiles": "CC1(C(=O)NC2C=CC(C(=O)O)C2)CN(c2cc(F)cc(F)c2)C(=O)O1", "note": "(stereo not shown) [Compound 138]", "values": [
      {"measurement": "Plant response rating, Barnyardgrass (0 to 100 scale, 0 is no effect and 100 is complete control)", "setting": "[1]", "value": 95},
      {"measurement": "Plant response rating, Ducksalad (0 to 100 scale, 0 is no effect and 100 is complete control)", "setting": "[2]", "value": 100},
      {"measurement": "Plant response rating, Rice (0 to 100 scale, 0 is no effect and 100 is complete control)", "setting": "[3]", "value": 95},
      {"measurement": "Plant response rating, Sedge, Umbrella (0 to 100 scale, 0 is no effect and 100 is complete control)", "setting": "[4]", "value": 95},
      {"measurement": "Kochia plant response rating", "setting": "[5]; 16 g ai/ha, 0 to 100 scale", "value": 90},
      {"measurement": "Kochia plant response rating (0-100)", "setting": "[5]; [29]", "value": 90},
      {"measurement": "Corn plant response rating", "setting": "[6]; 16 g ai/ha, 0 to 100 scale", "value": 60},
      {"measurement": "Corn plant response rating (0-100)", "setting": "[6]; [29]", "value": 90},
      {"measurement": "Barnyardgrass plant response rating", "setting": "[7]; 16 g ai/ha, 0 to 100 scale", "value": 60},
      {"measurement": "Barnyardgrass plant response rating (0-100)", "setting": "[7]; [29]", "value": 100},
      {"measurement": "Ragweed plant response rating", "setting": "[8]; 16 g ai/ha, 0 to 100 scale", "value": 0},
      {"measurement": "Ragweed plant response rating (0-100)", "setting": "[8]; [29]", "value": 40},
      {"measurement": "Soybean plant response rating", "setting": "[9]; 16 g ai/ha, 0 to 100 scale", "value": 30},
      {"measurement": "Soybean plant response rating (0-100)", "setting": "[9]; [29]", "value": 80},
      {"measurement": "Foxtail, Green plant response rating", "setting": "[10]; 16 g ai/ha, 0 to 100 scale", "value": 20},
      {"measurement": "Foxtail, Green plant response rating (0-100)", "setting": "[10]; [29]", "value": 90},
      {"measurement": "Oat, Wild plant response rating", "setting": "[11]; 16 g ai/ha, 0 to 100 scale", "value": 50},
      {"measurement": "Oat, Wild plant response rating (0-100)", "setting": "[11]; [29]", "value": 90},
      {"measurement": "Wheat plant response rating", "setting": "[12]; 16 g ai/ha, 0 to 100 scale", "value": 50},
      {"measurement": "Wheat plant response rating (0-100)", "setting": "[12]; [29]", "value": 90},
      {"measurement": "Blackgrass plant response rating", "setting": "[13]; 16 g ai/ha, 0 to 100 scale", "value": 40},
      {"measurement": "Blackgrass plant response rating (0-100)", "setting": "[13]; [29]", "value": 70},
      {"measurement": "Ryegrass, Italian plant response rating", "setting": "[14]; 16 g ai/ha, 0 to 100 scale", "value": 70},
      {"measurement": "Ryegrass, Italian plant response rating (0-100)", "setting": "[14]; [29]", "value": 90},
      {"measurement": "Pigweed, Palmer plant response rating", "setting": "[15]; 16 g ai/ha, 0 to 100 scale", "value": 30},
      {"measurement": "Pigweed, Palmer plant response rating (0-100)", "setting": "[15]; [29]", "value": 90},
      {"measurement": "Kochia plant response rating (0-100)", "setting": "[16]; [30]", "value": 80},
      {"measurement": "Kochia plant response rating (0 to 100 scale)", "setting": "[16]; [31]", "value": 80},
      {"measurement": "Corn plant response rating (0-100)", "setting": "[17]; [30]", "value": 100},
      {"measurement": "Corn plant response rating (0 to 100 scale)", "setting": "[17]; [31]", "value": 100},
      {"measurement": "Barnyardgrass plant response rating (0-100)", "setting": "[18]; [30]", "value": 80},
      {"measurement": "Barnyardgrass plant response rating (0 to 100 scale)", "setting": "[18]; [31]", "value": 70},
      {"measurement": "Ragweed plant response rating (0-100)", "setting": "[19]; [30]", "value": 80},
      {"measurement": "Ragweed plant response rating (0 to 100 scale)", "setting": "[19]; [31]", "value": 60},
      {"measurement": "Soybean plant response rating (0-100)", "setting": "[20]; [30]", "value": 60},
      {"measurement": "Soybean plant response rating (0 to 100 scale)", "setting": "[20]; [31]", "value": 60},
      {"measurement": "Foxtail, Green plant response rating (0-100)", "setting": "[21]; [30]", "value": 90},
      {"measurement": "Foxtail, Green plant response rating (0 to 100 scale)", "setting": "[21]; [31]", "value": 80},
      {"measurement": "Horseweed plant response rating (0-100)", "setting": "[22]; [30]", "value": 80},
      {"measurement": "Horseweed plant response rating (0 to 100 scale)", "setting": "[22]; [31]", "value": 50},
      {"measurement": "Galium plant response rating (0-100)", "setting": "[23]; [30]", "value": 90},
      {"measurement": "Galium plant response rating (0 to 100 scale)", "setting": "[23]; [31]", "value": 90},
      {"measurement": "Oat, Wild plant response rating (0-100)", "setting": "[24]; [30]", "value": 90},
      {"measurement": "Oat, Wild plant response rating (0 to 100 scale)", "setting": "[24]; [31]", "value": 90},
      {"measurement": "Wheat plant response rating (0-100)", "setting": "[25]; [30]", "value": 90},
      {"measurement": "Wheat plant response rating (0 to 100 scale)", "setting": "[25]; [31]", "value": 90},
      {"measurement": "Blackgrass plant response rating (0-100)", "setting": "[26]; [30]", "value": 90},
      {"measurement": "Blackgrass plant response rating (0 to 100 scale)", "setting": "[26]; [31]", "value": 70},
      {"measurement": "Ryegrass, Italian plant response rating (0-100)", "setting": "[27]; [30]", "value": 90},
      {"measurement": "Ryegrass, Italian plant response rating (0 to 100 scale)", "setting": "[27]; [31]", "value": 60},
      {"measurement": "Pigweed, Palmer plant response rating (0-100)", "setting": "[28]; [30]", "value": 90},
      {"measurement": "Pigweed, Palmer plant response rating (0 to 100 scale)", "setting": "[28]; [31]", "value": 90}
    ]}
  ]
}
